# In patent US8883841B2, “Oncogenic ras-specific cytotoxic compound and methods of use thereof” (The Board of Regents of the University of Texas System, priority 2005, dated 2014):
# What was measured:
# NCI-H226 = experiment: NCI in-vitro testing, NCI-H226 (Non-Small Cell Lung Cancer)
# HOP-62 = experiment: NCI in-vitro testing, HOP-62 (Non-Small Cell Lung Cancer)
# HS 578T = experiment: NCI in-vitro testing, HS 578T (Breast Cancer)
# NCI-H23 = experiment: NCI in-vitro testing, NCI-H23 (Non-Small Cell Lung Cancer)
# SF-539 = experiment: NCI in-vitro testing, SF-539 (CNS Cancer)
# [1] = system: panel of 60 cancer cell lines; experiment: NCI Developmental Therapeutics Program in-vitro testing, panel of 60 cancer cell lines (whole panel); assay type: cell-based; details: leukemia, non small lung, colon, melanoma, ovarian, renal, breast
# M14 = experiment: NCI in-vitro testing, M14 (Melanoma)
# MALME-3M = experiment: NCI in-vitro testing, MALME-3M (Melanoma)
# SK-MEL-2 = experiment: NCI in-vitro testing, SK-MEL-2 (Melanoma)
# ACHN = experiment: NCI in-vitro testing, ACHN (Renal Cancer)
# H460 tumors = experiment: In vivo antitumor activity, subcutaneous H460 tumors in nude mice
# Protocol: The inventors have investigated the in vivo antitumor activity of Oncrasin compounds, such as Oncrasin-1 and Oncrasin-27, both are available at relatively larger scale. Subcutaneous tumors were established in 4- to 6-week-old female nude mice (Charles River Laboratories Inc., Wilmington, Mass.) by the inoculation of 1.5×10^6 H460 cells into the dorsal flank of each mouse. After the tumors grew to 5 mm in diameter, mice were treated with intraperitoneal injections of Oncrasin-1 (for 10 days) or Oncrasin-27 (for 3 days, because of limited availability of the compound) at a dose of 100 mg/kg/injection daily (the agents were dissolved in 0.5 mL of solvent containing 10% DMSO, 10% Cremophor EL, and 10% ethanol), or they were given intraperitoneal injections of solvent alone. The tumor volumes were calculated using the formula a×b^2×0.5, where a and b represent the larger and smaller diameters, respectively (Gu et al., 2000; Terashi et al., 2005). Mice were killed when the tumors grew to 1.5 cm in diameter. To evaluate the toxicity of treatment, blood samples were collected from the tail vein before treatment and 2 days after the last treatment, and serum alanine transaminase, aspartate transaminase, and creatinine levels were determined as described elsewhere (Gu et al., 2000; Terashi et al., 2005). Hematopoietic toxicity was monitored by counting red blood cells, white blood cells, and platelets (Gu et al., 2002; Terashi et al., 2005). The lung, heart, liver, intestine, spleen, and kidney were harvested after the mice were killed to test the toxic effects of both compounds on these organs. The histopathologic analysis was performed in the histology laboratory of the Department of Veterinary Medicine and Surgery at M. D. Anderson Cancer Center. […] The mean survivals for mice treated with solvent, Oncrasin-1, and Oncrasin-27 were 24, 32, and 34 days, respectively.
# [2] = In vivo toxicity assay in tumor-bearing nude mice
smiles,measurement,setting,value
"O=Cc1cn(Cc2cccc(Cl)c2)c2ccccc12 [Oncrasin K027, 1-(3-chlorobenzyl)-1H-indole-3-carbaldehyde]",GI50,"NCI-H226; Homo sapiens, NCI-H226",< 10 nM
same,CC50,"NCI-H226; Homo sapiens, NCI-H226, read-out: LC50",501 nM
same,TGI,NCI-H226; NCI-H226,4.46E−8 Molar
same,Percent Growth,"NCI-H226; NCI-H226, Log10 Concentration −4.0 Molar",−65%
same,Percent Growth,"NCI-H226; NCI-H226, Log10 Concentration −5.0 Molar",−59%
same,Percent Growth,"NCI-H226; NCI-H226, Log10 Concentration −6.0 Molar",−62%
same,Percent Growth,"NCI-H226; NCI-H226, Log10 Concentration −7.0 Molar",−22%
same,Percent Growth,"NCI-H226; NCI-H226, Log10 Concentration −8.0 Molar",40%
same,TGI,HOP-62; HOP-62,1.93E−5 Molar
same,Percent Growth,"HOP-62; HOP-62, Log10 Concentration −4.0 Molar",−37%
same,Percent Growth,"HOP-62; HOP-62, Log10 Concentration −5.0 Molar",15%
same,Percent Growth,"HOP-62; HOP-62, Log10 Concentration −6.0 Molar",35%
same,Percent Growth,"HOP-62; HOP-62, Log10 Concentration −7.0 Molar",87%
same,Percent Growth,"HOP-62; HOP-62, Log10 Concentration −8.0 Molar",91%
same,GI50,"HOP-62; Homo sapiens, HOP-62",350 nM
same,CC50,"HOP-62; Homo sapiens, HOP-62, read-out: LC50",> 100 µM
same,TGI,HS 578T; HS 578T,2.75E−6 Molar
same,Percent Growth,"HS 578T; HS 578T, Log10 Concentration −4.0 Molar",−38%
same,Percent Growth,"HS 578T; HS 578T, Log10 Concentration −5.0 Molar",30%
same,Percent Growth,"HS 578T; HS 578T, Log10 Concentration −6.0 Molar",91%
same,Percent Growth,"HS 578T; HS 578T, Log10 Concentration −7.0 Molar",98%
same,Percent Growth,"HS 578T; HS 578T, Log10 Concentration −8.0 Molar",105%
same,GI50,"HS 578T; Homo sapiens, Hs-578T",4.68 µM
same,CC50,"HS 578T; Homo sapiens, Hs-578T, read-out: LC50",> 100 µM
same,GI50,"NCI-H23; Homo sapiens, NCI-H23",2900 nM
same,CC50,"NCI-H23; Homo sapiens, NCI-H23, read-out: LC50",71.1 µM
same,TGI,NCI-H23; NCI-H23,2.10E−5 Molar
same,Percent Growth,"NCI-H23; NCI-H23, Log10 Concentration −4.0 Molar",−54%
same,Percent Growth,"NCI-H23; NCI-H23, Log10 Concentration −5.0 Molar",31%
same,Percent Growth,"NCI-H23; NCI-H23, Log10 Concentration −6.0 Molar",57%
same,Percent Growth,"NCI-H23; NCI-H23, Log10 Concentration −7.0 Molar",82%
same,Percent Growth,"NCI-H23; NCI-H23, Log10 Concentration −8.0 Molar",94%
same,GI50,"SF-539; Homo sapiens, SF-539",10.9 µM
same,CC50,"SF-539; Homo sapiens, SF-539, read-out: LC50",86.6 µM
same,TGI,SF-539; SF-539,2.70E−5 Molar
same,Percent Growth,"SF-539; SF-539, Log10 Concentration −4.0 Molar",−73%
same,Percent Growth,"SF-539; SF-539, Log10 Concentration −5.0 Molar",55%
same,Percent Growth,"SF-539; SF-539, Log10 Concentration −6.0 Molar",104%
same,Percent Growth,"SF-539; SF-539, Log10 Concentration −7.0 Molar",110%
same,Percent Growth,"SF-539; SF-539, Log10 Concentration −8.0 Molar",108%
same,anticancer spectrum in NCI panel,[1],active in a number of cancer cell lines
same,GI50,"M14; Homo sapiens, M14",5.16 µM
same,CC50,"M14; Homo sapiens, M14, read-out: LC50",55.9 µM
same,TGI,M14; M14,2.03E−5 Molar
same,Percent Growth,"M14; M14, Log10 Concentration −4.0 Molar",−79%
same,Percent Growth,"M14; M14, Log10 Concentration −5.0 Molar",35%
same,Percent Growth,"M14; M14, Log10 Concentration −6.0 Molar",87%
same,Percent Growth,"M14; M14, Log10 Concentration −7.0 Molar",94%
same,Percent Growth,"M14; M14, Log10 Concentration −8.0 Molar",95%
same,GI50,"MALME-3M; Homo sapiens, Malme-3M",5.17 µM
same,CC50,"MALME-3M; Homo sapiens, Malme-3M, read-out: LC50",82 µM
same,TGI,MALME-3M; MALME-3M,2.37E−5 Molar
same,Percent Growth,"MALME-3M; MALME-3M, Log10 Concentration −4.0 Molar",−58%
same,Percent Growth,"MALME-3M; MALME-3M, Log10 Concentration −5.0 Molar",35%
same,Percent Growth,"MALME-3M; MALME-3M, Log10 Concentration −6.0 Molar",88%
same,Percent Growth,"MALME-3M; MALME-3M, Log10 Concentration −7.0 Molar",114%
same,Percent Growth,"MALME-3M; MALME-3M, Log10 Concentration −8.0 Molar",105%
same,GI50,"SK-MEL-2; Homo sapiens, SK-MEL-2",15.8 µM
same,CC50,"SK-MEL-2; Homo sapiens, SK-MEL-2, read-out: LC50",48.2 µM
same,TGI,SK-MEL-2; SK-MEL-2,5.94E−8 Molar
same,Percent Growth,"SK-MEL-2; SK-MEL-2, Log10 Concentration −4.0 Molar",−64%
same,Percent Growth,"SK-MEL-2; SK-MEL-2, Log10 Concentration −5.0 Molar",−20%
same,Percent Growth,"SK-MEL-2; SK-MEL-2, Log10 Concentration −6.0 Molar",67%
same,Percent Growth,"SK-MEL-2; SK-MEL-2, Log10 Concentration −7.0 Molar",84%
same,Percent Growth,"SK-MEL-2; SK-MEL-2, Log10 Concentration −8.0 Molar",98%
same,TGI,ACHN,2.25E−5 Molar
same,GI50,ACHN; Homo sapiens,2880 nM
same,CC50,"ACHN; Homo sapiens, read-out: LC50",> 100 µM
same,Percent Growth,ACHN; Log10 Concentration −4.0 Molar,−30%
same,Percent Growth,ACHN; Log10 Concentration −5.0 Molar,16%
same,Percent Growth,ACHN; Log10 Concentration −6.0 Molar,76%
same,Percent Growth,ACHN; Log10 Concentration −7.0 Molar,92%
same,Percent Growth,ACHN; Log10 Concentration −8.0 Molar,99%
same,suppression of growth of tumor volume in comparison with solvent,"H460 tumors; 100 mg/kg/injection daily i.p., Oncrasin-1 10 days, Oncrasin-27 3 days",76.3%
same,mean survival,"H460 tumors; 100 mg/kg/injection daily i.p., solvent 24 days",34 days
same,mean tumor volume vs solvent-treated mice,"H460 tumors; p<0.05, 5 mice per group",differed significantly
same,"serum ALT, AST, and creatinine levels",[2]; 2 days after the last treatment,within the normal range
same,histopathologic examination of organs,"[2]; lung, heart, stomach, small intestine, liver, spleen, pancreas, kidney",no significant lesions
same,blood cell counts,"[2]; red blood cells, white blood cells, platelets",all in the normal ranges
same,body weights,[2]; vs solvent,No difference
